Laboratory results published in article PMC8145546, “Inhibition of Rice Serotonin N-Acetyltransferases by MG149 Decreased Melatonin Synthesis in Rice Seedlings” (Biomolecules, 2021).

Legend:
[1] = molecular target: T1, OsSNAT1 (rice recombinant SNAT1) (Oryza sativa, UniProt Q5KQI6); assay: HPLC-fluorescence of N-acetylserotonin formed; type: biochemical
T1 construct: N-terminal 83 residues deleted; E. coli, plasmid pET300-Δ83SNAT1; purified recombinant

[2] = molecular target: T2, OsSNAT2 (rice recombinant SNAT2) (Oryza sativa, UniProt Q6Z1Y6); assay: HPLC-fluorescence of N-acetylserotonin formed; type: biochemical
T2 construct: N-terminal 34 residues deleted; purified recombinant
T2 sequence (Q6Z1Y6 35-200): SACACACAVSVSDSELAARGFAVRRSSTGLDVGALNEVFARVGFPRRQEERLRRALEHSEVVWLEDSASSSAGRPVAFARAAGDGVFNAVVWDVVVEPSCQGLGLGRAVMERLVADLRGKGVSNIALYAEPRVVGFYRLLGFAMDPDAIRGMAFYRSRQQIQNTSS

T1 sequence (Q5KQI6 84-254): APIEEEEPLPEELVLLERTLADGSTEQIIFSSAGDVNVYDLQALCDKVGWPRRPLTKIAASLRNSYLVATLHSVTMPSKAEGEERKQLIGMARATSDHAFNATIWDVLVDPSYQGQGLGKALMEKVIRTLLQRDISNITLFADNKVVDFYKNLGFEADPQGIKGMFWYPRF

inhibition at 50 µM [1]: 80%
inhibition at 100 µM [2]: 28%
Compound: CCCCCCCc1ccc(CCc2cccc(O)c2C(=O)O)cc1 [MG149]
